Data reported in patent publication US20250241308A1, “COMPOSITIONS AND METHODS FOR CONTROLLING PESTS” (PYRONE SYSTEMS, INC., priority 2022, published 2025).
Marks after values point to notes of the source that are not given here.

Legend:
[1] = tested on: Aedes aegypti adult female mosquitoes; experiment: LD50 of insecticides alone and in combination with sublethal pogostone; assay type: in vivo; details: for Synergism Ratio: LD50 of insecticide alone / LD50 of insecticide in combination with pogostone; for LD50: insecticide alone or with pogostone at sublethal dosage, pogostone effect corrected with Abbott's formula
Excerpt: The dashed line indicates sublethal dosage of pogostone used for synergist experiments in Example 2.
Synergism ratios are presented as the ratio of the LD50 of insecticide alone and the LD50 of insecticide applied in combination with pogostone. The insecticidal effect of pogostone alone is corrected for using Abbott's formula (Equation 1) in all treatments using pogostone.

[2] = tested on: house fly strain CAR21 (S); experiment: Median lethal dose determination, house fly CAR21; assay type: in vivo
Procedure: (§1) 24-hour median lethal dose determinations of pogostone and permethrin were performed in three house fly strains and one stable fly strain. The KS17 resistant strain below is simultaneously resistant to organophosphates, carbamates, and synthetic pyrethroids.
(§2) 48-hour median lethal dose determinations of pogostone and permethrin were performed in three house fly strains. The KS17 resistant strain below is simultaneously resistant to organophosphates, carbamates, and synthetic pyrethroids.

[3] = tested on: house fly strain WHF (R); experiment: Median lethal dose determination, house fly WHF; assay type: in vivo; details: for LD50: WHF (R); for RR (resistance ratio): WHF (R) LD50 divided by susceptible strain LD50
Procedure: as §1, §2

[4] = tested on: house fly strain KS17 (R); experiment: Median lethal dose determination, house fly KS17; assay type: in vivo; details: for LD50: KS17 (R); for RR (resistance ratio): KS17 (R) LD50 divided by susceptible strain LD50, NS = not significantly different
Procedure: as §1, §2

[5] = tested on: Stable flies (S); experiment: Median lethal dose determination, stable fly; assay type: in vivo; details: 24-hour
Procedure: as §1

[6] = tested on: Aedes aegypti Puerto Rican strain (pyrethroid-resistant); experiment: Topical application KD50 and LD50, pyrethroid-resistant strain
[7] = tested on: Aedes aegypti Orlando strain (pyrethroid-susceptible); experiment: Topical application KD50 and LD50, pyrethroid-susceptible strain
[8] = tested on: pyrethroid-susceptible (Orlando) strain of Aedes aegypti female adult mosquitoes; experiment: Spatial repellency, static air repellency chamber, Orlando strain; assay type: in vivo; details: for EC50 (spatial repellency): 1 hour after introducing treated filter papers
Procedure: Spatial repellency of pogostone was assessed on pyrethroid-susceptible (Orlando) and pyrethroid-resistant (Puerto Rico) strains of Aedes aegypti female adult mosquitoes. Repellency bioassays were performed using a static air repellency chamber, which has been described previously (Schultz, 2006; Peterson, 2018). Briefly, the repellency chamber consists of a clear glass cylinder 600 mm in length with an inner diameter of roughly 85 mm laying horizontally. One end of the cylinder is capped with an untreated 90-mm filter paper (Whatman No. 1) contained in a 90-mm inner diameter glass petri dish, and sealed with tape to remain closed. The other end is capped in the same manner, except the filter paper has been treated with 1 mL of a 0.5% (w/v) solution of a monoterpenoid ester in acetone, resulting in 78.6 μg/cm^2 of repellent on the filter paper. The solution was added to the filter paper evenly and at a rate such that the evaporation of acetone prevents loss of compound from dripping, and the acetone was allowed to evaporate at room temperature for a further 10 minutes before use for the short-term repellency assay, or for an additional five hours under open air in ambient conditions in the case of long-term repellency studies. Shortly after placing the filter papers on the end of the tube, twenty (not blood fed) female […] mosquitoes were anesthetized with carbon dioxide, and placed into the tube via a 20-mm hole halfway down the length of the tube, and the hole was sealed. This process is performed with as little disturbance to the air in the tube as possible. The distribution of mosquitoes between the treated and untreated sides was then noted at 15, 30, 60, 90, 120, and 150 minutes after placement into the tube. Repellency ratio of Orlando or Puerto Rico mosquitoes was recorded as a proportion of the number of mosquitoes on the treated side of the tube compared to the whole tube [number of treated side/total number throughout entire tube] at 1 hour after introducing the treated filter papers.

[9] = tested on: pyrethroid-resistant (Puerto Rico) strain of Aedes aegypti female adult mosquitoes; experiment: Spatial repellency, static air repellency chamber, Puerto Rico strain; assay type: in vivo
Procedure: Spatial repellency of pogostone was assessed on pyrethroid-susceptible (Orlando) and pyrethroid-resistant (Puerto Rico) strains of Aedes aegypti female adult mosquitoes. Repellency bioassays were performed using a static air repellency chamber, which has been described previously (Schultz, 2006; Peterson, 2018). Briefly, the repellency chamber consists of a clear glass cylinder 600 mm in length with an inner diameter of roughly 85 mm laying horizontally. One end of the cylinder is capped with an untreated 90-mm filter paper (Whatman No. 1) contained in a 90-mm inner diameter glass petri dish, and sealed with tape to remain closed. The other end is capped in the same manner, except the filter paper has been treated with 1 mL of a 0.5% (w/v) solution of a monoterpenoid ester in acetone, resulting in 78.6 μg/cm^2 of repellent on the filter paper. […] Repellency ratio of Orlando or Puerto Rico mosquitoes was recorded as a proportion of the number of mosquitoes on the treated side of the tube compared to the whole tube [number of treated side/total number throughout entire tube] at 1 hour after introducing the treated filter papers.

Structure (SMILES) | Synergism Ratio [1] | LD50 [1] [ng/mg] | LD50 ([2]; 24-hour) | LD50 ([2]; 48-hour) | LD50 ([3]; 24-hour) | RR (resistance ratio) ([3]; 24-hour) | LD50 ([3]; 48-hour) | RR (resistance ratio) ([3]; 48-hour) | LD50 ([4]; 24-hour) | LD50 ([4]; 48-hour) | LD50 [5] [ng/fly] | KD50 [6] [ng/mg] | LD50 [6] [ng/mg] | KD50 [7] [ng/mg] | LD50 [7] [ng/mg] | EC50 (spatial repellency) [8] | further results
CC1(C)C(C=C(Cl)Cl)C1C(=O)OCc1cccc(Oc2ccccc2)c1 (stereo not shown) [Permethrin] | 2.6* | 0.37 | 15.4 ng/fly | 14.5 ng/fly | 1,100 ng/fly | 71.5 | 894 ng/fly | 61.7 | >5000 ng/fly | >5,000 ng/fly | 1.81 |  |  |  |  |  | RR (resistance ratio) ([4]; 24-hour): 325.1; RR (resistance ratio) ([4]; 48-hour): 344.8
Clc1ccc(C(c2ccc(Cl)cc2)C(Cl)(Cl)Cl)cc1 [DDT] |  |  |  |  |  |  |  |  |  |  |  | 350 | 530 | 9.5 | 9.6 |  | 
CCN(CC)C(=O)c1cccc(C)c1 [DEET] |  |  |  |  |  |  |  |  |  |  |  |  |  |  |  | approximately 10 μg/cm^2 | 
Cc1cc(O)c(C(=O)CCC(C)C)c(=O)o1 [pogostone] |  |  | 7,600 ng/fly | 6,800 ng/fly | 13,900 ng/fly | 1.8 | 9,900 ng/fly | 1.5 | 10,700 ng/fly | 6,890 ng/fly | 540 | 14 | 70 | 11 | 96 | 3.6 μg/cm^2 | spatial repellency (in words) ([8]; FIG. 2): considerably repellent; EC50 (spatial repellency) ([9]; 1 hour after introducing treated filter papers): 2.5 μg/cm^2; spatial repellency (in words) ([9]; FIG. 2): considerably repellent
CN/C(=N/CC1CCOC1)N[N+](=O)[O-] (stereo not shown) [Dinotefuran] | 6.0* | 12.7 |  |  |  |  |  |  |  |  |  |  |  |  |  |  | 
